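Where inhibition never reached the appropriate level, the endpoint shown equals the highest concentration tested. Otherwise, values were interpolated linearly from a five-concentration, 48-hour dose response in 96-well plates. GI50 = concentration required for 50% inhibition of growth.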 Activity calls are given as the source filed them. Cut-off read from the data, not from the text of the source: active = GI50 up to about 1.1 µM and inactive = higher.
Experiments:
Experiment in all cases: NCI-60 cell line screen, 48 h
DU-145 = tested on: DU-145
HOP-62 = tested on: HOP-62
UACC-257 = tested on: UACC-257
CCRF-CEM = tested on: CCRF-CEM
SNB-19 = tested on: SNB-19
NCI-H226 = tested on: NCI-H226
UO-31 = tested on: UO-31
PC-3 = tested on: PC-3
CAKI-1 = tested on: CAKI-1
HCT-15 = tested on: HCT-15
RPMI-8226 = tested on: RPMI-8226
SR = tested on: SR
MDA-N = tested on: MDA-N
M14 = tested on: M14
A549 = tested on: A549
SNB-75 = tested on: SNB-75
SK-MEL-2 = tested on: SK-MEL-2
Hs-578T = tested on: Hs-578T
MDA-MB-231 = tested on: MDA-MB-231
OVCAR-5 = tested on: OVCAR-5
OVCAR-8 = tested on: OVCAR-8
HCT-116 = tested on: HCT-116
COLO 205 = tested on: COLO 205
MCF7 = tested on: MCF7
OVCAR-3 = tested on: OVCAR-3
EKVX = tested on: EKVX
K562 = tested on: K562
MOLT-4 = tested on: MOLT-4
SK-MEL-28 = tested on: SK-MEL-28
NCI-H460 = tested on: NCI-H460
NCI/ADR-RES = tested on: NCI/ADR-RES
SF-539 = tested on: SF-539
TK-10 = tested on: TK-10
BT-549 = tested on: BT-549
786-0 = tested on: 786-0
NCI-H23 = tested on: NCI-H23
HL-60 = tested on: HL-60
ACHN = tested on: ACHN
RXF 393 = tested on: RXF 393
HT-29 = tested on: HT-29
SF-268 = tested on: SF-268
UACC-62 = tested on: UACC-62
A498 = tested on: A498
U-251 = tested on: U-251
SF-295 = tested on: SF-295
IGROV-1 = tested on: IGROV-1
MDA-MB-435 = tested on: MDA-MB-435
SW-620 = tested on: SW-620
KM12 = tested on: KM12
SK-MEL-5 = tested on: SK-MEL-5
SN12C = tested on: SN12C
T47D = tested on: T47D
OVCAR-4 = tested on: OVCAR-4
LOX IMVI = tested on: LOX IMVI
SK-OV-3 = tested on: SK-OV-3
Malme-3M = tested on: Malme-3M
HOP-92 = tested on: HOP-92
NCI-H522 = tested on: NCI-H522
HCC 2998 = tested on: HCC 2998

CSc1nn(C)cc2ncnc1-2
GI50 (DU-145): > 100000 nM (inactive) | GI50 (HOP-62): > 100000 nM (inactive) | GI50 (UACC-257): > 100000 nM (inactive) | GI50 (CCRF-CEM): > 100000 nM (inactive) | GI50 (SNB-19): > 100000 nM (inactive) | GI50 (NCI-H226): > 100000 nM (inactive) | GI50 (UO-31): > 100000 nM (inactive) | GI50 (PC-3): > 100000 nM (inactive) | GI50 (CAKI-1): > 100000 nM (inactive) | GI50 (HCT-15): > 100000 nM | GI50 (RPMI-8226): > 100000 nM (inactive) | GI50 (SR): 97100 nM (inactive) | GI50 (MDA-N): > 100000 nM (inactive) | GI50 (M14): > 100000 nM (inactive) | GI50 (A549): > 100000 nM (inactive) | GI50 (SNB-75): 206 nM (active) | GI50 (SK-MEL-2): > 100000 nM (inactive) | GI50 (Hs-578T): > 100000 nM (inactive) | GI50 (MDA-MB-231): > 100000 nM (inactive) | GI50 (OVCAR-5): > 100000 nM (inactive) | GI50 (OVCAR-8): > 100000 nM (inactive) | GI50 (HCT-116): > 100000 nM (inactive) | GI50 (COLO 205): > 100000 nM (inactive) | GI50 (MCF7): > 100000 nM (inactive) | GI50 (OVCAR-3): > 100000 nM (inactive) | GI50 (EKVX): > 100000 nM (inactive) | GI50 (K562): > 100000 nM (inactive) | GI50 (MOLT-4): > 100000 nM (inactive) | GI50 (SK-MEL-28): > 100000 nM (inactive) | GI50 (NCI-H460): > 100000 nM (inactive) | GI50 (NCI/ADR-RES): > 100000 nM (inactive) | GI50 (SF-539): > 100000 nM (inactive) | GI50 (TK-10): > 100000 nM (inactive) | GI50 (BT-549): > 100000 nM (inactive) | GI50 (786-0): > 100000 nM (inactive) | GI50 (NCI-H23): > 100000 nM (inactive) | GI50 (HL-60): > 100000 nM (inactive) | GI50 (ACHN): > 100000 nM (inactive) | GI50 (RXF 393): > 100000 nM (inactive) | GI50 (HT-29): > 100000 nM (inactive) | GI50 (SF-268): > 100000 nM (inactive) | GI50 (UACC-62): > 100000 nM (inactive) | GI50 (A498): > 100000 nM (inactive) | GI50 (U-251): > 100000 nM (inactive) | GI50 (SF-295): > 100000 nM (inactive) | GI50 (IGROV-1): > 100000 nM (inactive) | GI50 (MDA-MB-435): > 100000 nM (inactive) | GI50 (SW-620): > 100000 nM (inactive) | GI50 (KM12): > 100000 nM (inactive) | GI50 (SK-MEL-5): > 100000 nM (inactive) | GI50 (SN12C): > 100000 nM (inactive) | GI50 (T47D): > 100000 nM (inactive)

CC(=O)OCC1OC(O[C@@H]2C[C@H]3C(C)(C)[C@@H](OC(C)=O)CC[C@]3(C)[C@H]3CC[C@]45C[C@]4(CC[C@H]5[C@@H](C)C[C@@H](O)[C@H](O)C(C)(C)F)[C@@]32C)C(O)C(O)C1O (stereo not given in full)
GI50 (DU-145): > 100000 nM (inactive) | GI50 (HOP-62): 50000 nM (inactive) | GI50 (UACC-257): 7570 nM (inactive) | GI50 (CCRF-CEM): 1210 nM (inactive) | GI50 (SNB-19): 1680 nM (inactive) | GI50 (OVCAR-4): 65900 nM (inactive) | GI50 (PC-3): 10600 nM (inactive) | GI50 (CAKI-1): 63400 nM (inactive) | GI50 (HCT-15): 2480 nM | GI50 (RPMI-8226): 1790 nM (inactive) | GI50 (MDA-N): 1630 nM (inactive) | GI50 (M14): 1760 nM (inactive) | GI50 (A549): 1620 nM (inactive) | GI50 (LOX IMVI): 1770 nM (inactive) | GI50 (Hs-578T): 1840 nM (inactive) | GI50 (MDA-MB-231): 25800 nM (inactive) | GI50 (SK-OV-3): 42200 nM (inactive) | GI50 (OVCAR-5): 1470 nM (inactive) | GI50 (OVCAR-8): 2340 nM (inactive) | GI50 (HCT-116): 1560 nM (inactive) | GI50 (COLO 205): 1780 nM (inactive) | GI50 (MCF7): 12600 nM (inactive) | GI50 (OVCAR-3): 30100 nM (inactive) | GI50 (EKVX): 1610 nM (inactive) | GI50 (K562): 1600 nM (inactive) | GI50 (MOLT-4): 1920 nM (inactive) | GI50 (SK-MEL-28): 1630 nM (inactive) | GI50 (NCI-H460): 16900 nM (inactive) | GI50 (Malme-3M): 1710 nM (inactive) | GI50 (NCI/ADR-RES): 10500 nM (inactive) | GI50 (SF-539): 1810 nM (inactive) | GI50 (TK-10): 57900 nM (inactive) | GI50 (BT-549): 1720 nM (inactive) | GI50 (786-0): 1690 nM (inactive) | GI50 (NCI-H23): 2220 nM (inactive) | GI50 (HL-60): 1090 nM (active) | GI50 (ACHN): 37500 nM (inactive) | GI50 (HOP-92): 1930 nM (inactive) | GI50 (RXF 393): 57500 nM (inactive) | GI50 (HT-29): 1640 nM (inactive) | GI50 (SF-268): 1470 nM (inactive) | GI50 (NCI-H522): 1680 nM (inactive) | GI50 (UACC-62): 23900 nM (inactive) | GI50 (A498): 18200 nM (inactive) | GI50 (U-251): 18200 nM (inactive) | GI50 (SF-295): 24700 nM (inactive) | GI50 (IGROV-1): 2060 nM (inactive) | GI50 (MDA-MB-435): 8040 nM (inactive) | GI50 (SW-620): 1850 nM (inactive) | GI50 (KM12): 16200 nM (inactive) | GI50 (SK-MEL-5): 1720 nM (inactive) | GI50 (HCC 2998): 25900 nM (inactive) | GI50 (SN12C): 1730 nM (inactive) | GI50 (T47D): > 100000 nM (inactive)

S=C(N/N=C(/c1ccccc1)c1ccccn1)N1CCCCCC1
GI50 (DU-145): 369 nM (active) | GI50 (HOP-62): 51.4 nM (active) | GI50 (UACC-257): < 15 nM (active) | GI50 (CCRF-CEM): < 13.3 nM (active) | GI50 (SNB-19): 308 nM (active) | GI50 (NCI-H226): 37.9 nM (active) | GI50 (UO-31): 90.4 nM (active) | GI50 (OVCAR-4): 127 nM (active) | GI50 (PC-3): < 19.8 nM (active) | GI50 (CAKI-1): 81.8 nM (active) | GI50 (HCT-15): < 21.3 nM | GI50 (MDA-N): < 44 nM (active) | GI50 (M14): 1 nM (active) | GI50 (A549): < 37.1 nM (active) | GI50 (SNB-75): 36 nM (active) | GI50 (SK-MEL-2): 489 nM (active) | GI50 (Hs-578T): 300 nM (active) | GI50 (MDA-MB-231): 10 nM (active) | GI50 (SK-OV-3): < 27 nM (active) | GI50 (OVCAR-5): 76.4 nM (active) | GI50 (OVCAR-8): < 25.6 nM (active) | GI50 (HCT-116): 10 nM (active) | GI50 (COLO 205): < 18 nM (active) | GI50 (MCF7): 56.9 nM (active) | GI50 (OVCAR-3): 10 nM (active) | GI50 (EKVX): < 32.9 nM (active) | GI50 (K562): < 11.5 nM (active) | GI50 (MOLT-4): < 13.4 nM (active) | GI50 (NCI-H460): < 28.3 nM (active) | GI50 (Malme-3M): < 29.5 nM (active) | GI50 (NCI/ADR-RES): < 19.4 nM (active) | GI50 (SF-539): 198 nM (active) | GI50 (TK-10): 112 nM (active) | GI50 (BT-549): 564 nM (active) | GI50 (786-0): < 26.5 nM (active) | GI50 (NCI-H23): 53.8 nM (active) | GI50 (HL-60): < 10.3 nM (active) | GI50 (ACHN): < 42.1 nM (active) | GI50 (HOP-92): 550 nM (active) | GI50 (RXF 393): 670 nM (active) | GI50 (HT-29): < 14.1 nM (active) | GI50 (SF-268): < 39.1 nM (active) | GI50 (NCI-H522): 73.1 nM (active) | GI50 (UACC-62): 47.6 nM (active) | GI50 (A498): 269 nM (active) | GI50 (U-251): < 25.2 nM (active) | GI50 (SF-295): < 37.4 nM (active) | GI50 (IGROV-1): < 19.8 nM (active) | GI50 (MDA-MB-435): 84.3 nM (active) | GI50 (SW-620): < 21.4 nM (active) | GI50 (KM12): < 30.6 nM (active) | GI50 (SK-MEL-5): < 22.8 nM (active) | GI50 (HCC 2998): 176 nM (active) | GI50 (T47D): 84.3 nM (active)

— ChEMBL document CHEMBL1201862, “PubChem BioAssay data set” (2004)
